# Compound: Cc1ccccc1C(C(=O)NC1CCCCC1)N(C(=O)Cn1ccnc1C)c1cccc(F)c1 [IDH-C35] + Cc1nc(NC(=O)N2CCC[C@H]2C(N)=O)sc1-c1ccnc(C(C)(C)C(F)(F)F)c1 [Alpelisib] (partner 2 µM)
# Test: relative viability (nuclei count vs DMSO), 5 days (fraction); higher = more cells survive
# Settings: first compound 0.08 µM
# Summary of the method: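 Dosing by pin tool came one day after lung cancer cell lines were seeded in 1536-well plates, using either one drug or a fixed anchor-drug dose plus five library-drug doses (not always all listed) in √10 steps. After 5 days, nuclei were counted on 4× images. Relative viability is treated-well nuclei count divided by vehicle-well nuclei count, and values are medians of duplicate plates.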
row,Cell Line,relative viability
1,Calu-6,1
2,HCC-366,0.476
3,NCI-H1666,0.974
4,NCI-H596,0.552
5,LK-2,1.11
6,NCI-H2087,1.11
7,SK-MES-1,1.02
8,H3255,0.681
9,COR-L23,0.759
10,COR-L 105,1.04
11,IA-LM,0.998
12,LOU-NH91,0.746
13,HCC-44,0.821
14,A549,0.734
15,NCI-H2009,1.24
16,NCI-H661,0.589
17,SK-LU-1,0.993
18,NCI-H1299,1.06
19,NCI-H2228,0.744
20,NCI-H1792,0.655
21,NCI-H2023,0.598
22,NCI-H1563,0.947

# Same assay, conditions: first compound 0.253 µM
row,Cell Line,relative viability
1,NCI-H727,0.719
2,EBC-1,0.826
3,NCI-H1703,0.372
4,NCI-H1993,0.732
5,SW 1573,0.699
6,NCI-H838,0.92
7,LCLC-103H,0.979
8,NCI-H520,0.808
9,NCI-H2126,0.758
10,EMC-BAC-2,0.665
11,NCI-H2085,0.897
12,Calu-6,0.973
13,HCC-366,0.311
14,NCI-H1666,0.951
15,NCI-H596,0.48
16,LK-2,1.05
17,NCI-H2087,1.13

row,Cell Line,relative viability
1,SK-MES-1,1.01
2,H3255,0.822
3,COR-L23,0.765
4,COR-L 105,1.08
5,IA-LM,0.9
6,LOU-NH91,0.774
7,HCC-44,0.764
8,A549,0.871
9,NCI-H2009,1.12
10,NCI-H661,0.852
11,SK-LU-1,0.918
12,NCI-H1299,1.02
13,NCI-H2228,0.722
14,NCI-H1792,0.727
15,NCI-H2023,0.581
16,NCI-H1563,0.877

# Same assay, conditions: first compound 0.8 µM
row,Cell Line,relative viability
1,NCI-H727,0.543
2,EBC-1,0.843
3,NCI-H1703,0.405
4,NCI-H1993,0.63
5,SW 1573,0.685
6,NCI-H838,0.951
7,LCLC-103H,0.918
8,NCI-H520,0.891
9,NCI-H2126,0.745
10,EMC-BAC-2,0.739
11,NCI-H2085,0.799
12,Calu-6,0.955
13,HCC-366,0.387
14,NCI-H1666,0.955
15,NCI-H596,0.555
16,LK-2,0.991
17,NCI-H2087,1.05

row,Cell Line,relative viability
1,SK-MES-1,0.873
2,H3255,0.633
3,COR-L23,0.782
4,COR-L 105,1.13
5,IA-LM,0.793
6,LOU-NH91,0.712
7,HCC-44,0.737
8,A549,0.771
9,NCI-H2009,1.1
10,NCI-H661,0.529
11,SK-LU-1,1.29
12,NCI-H1299,1.09
13,NCI-H2228,0.735
14,NCI-H1792,0.669
15,NCI-H2023,0.579
16,NCI-H1563,1.01

# Same assay, conditions: first compound 2.53 µM
row,Cell Line,relative viability
1,NCI-H727,0.582
2,EBC-1,0.867
3,NCI-H1703,0.343
4,NCI-H1993,0.768
5,SW 1573,0.692
6,NCI-H838,0.93
7,LCLC-103H,0.963
8,NCI-H520,0.845
9,NCI-H2126,0.737
10,EMC-BAC-2,0.756
11,NCI-H2085,1.01
12,Calu-6,0.97
13,HCC-366,0.403
14,NCI-H1666,0.986
15,NCI-H596,0.471
16,LK-2,1.1
17,NCI-H2087,1.09

row,Cell Line,relative viability
1,SK-MES-1,0.887
2,H3255,0.774
3,COR-L23,0.769
4,COR-L 105,0.882
5,IA-LM,0.761
6,LOU-NH91,0.711
7,HCC-44,0.827
8,A549,0.744
9,NCI-H2009,1.15
10,NCI-H661,0.689
11,SK-LU-1,1.11
12,NCI-H1299,1.05
13,NCI-H2228,0.779
14,NCI-H1792,0.741
15,NCI-H2023,0.492
16,NCI-H1563,0.84

# Same assay, conditions: first compound 8 µM
row,Cell Line,relative viability
1,NCI-H727,0.83
2,EBC-1,0.738
3,NCI-H1703,0.309
4,NCI-H1993,0.711
5,SW 1573,0.754
6,NCI-H838,0.949
7,LCLC-103H,1.09
8,NCI-H520,0.954
9,NCI-H2126,0.752
10,EMC-BAC-2,0.709
11,NCI-H2085,0.863
12,Calu-6,1.05
13,HCC-366,0.352
14,NCI-H1666,0.911
15,NCI-H596,0.446
16,LK-2,1.04
17,NCI-H2087,0.874

row,Cell Line,relative viability
1,SK-MES-1,0.833
2,H3255,0.637
3,COR-L23,0.746
4,COR-L 105,0.99
5,IA-LM,0.584
6,LOU-NH91,0.706
7,HCC-44,0.763
8,A549,0.726
9,NCI-H2009,1.1
10,NCI-H661,0.711
11,SK-LU-1,0.934
12,NCI-H1299,1.04
13,NCI-H2228,0.74
14,NCI-H1792,0.827
15,NCI-H2023,0.611
16,NCI-H1563,0.925

# Source: the supplement of paper PMC10307832
